Literature values, collected in US7829066B2, “Assay for anti-metastatic agents” (Memorial Sloan-Kettering Cancer Center, priority 2006, dated 2010).

Test system: metastatic tumors
Conditions: stated as known

## Avastin: an anti-VEGF inhibitor that is known to inhibit metastatic tumors
  inhibition of metastatic tumors: known to inhibit metastatic tumors
